Consider four compounds from BindingDB's records for doi:10.1124/jpet.105.083337 (Neurocrine Biosciences, 2005).

Molecules are shown by their SMILES.

This assay deals with Melanocortin receptor 4 (Homo sapiens, UniProt P32245).
Melanocortin receptor 4, sequence (P32245 whole entry): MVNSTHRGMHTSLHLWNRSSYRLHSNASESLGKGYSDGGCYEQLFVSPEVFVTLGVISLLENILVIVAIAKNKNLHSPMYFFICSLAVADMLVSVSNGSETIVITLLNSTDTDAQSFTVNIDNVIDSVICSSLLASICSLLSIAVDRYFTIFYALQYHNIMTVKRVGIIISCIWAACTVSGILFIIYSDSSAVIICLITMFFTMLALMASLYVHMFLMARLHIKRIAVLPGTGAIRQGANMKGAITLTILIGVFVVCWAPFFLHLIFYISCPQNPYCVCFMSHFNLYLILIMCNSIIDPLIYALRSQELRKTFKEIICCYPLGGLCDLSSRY
With `CC(Nc1cc[nH]c1)c1ccccc1N1CCN(C(=O)[C@@H](Cc2ccc(Cl)cc2)NC(=O)[C@H]2Cc3ccccc3CN2)CC1` (some centres undefined) [NBI-58704], the affinity corresponds to a Ki of 13.5 nM. With `CN(Cc1ccccc1N1CCN(C(=O)[C@@H](Cc2ccc(Cl)cc2)NC(=O)[C@H]2Cc3ccccc3CN2)CC1)C1CCCNC1` (some centres undefined) [NBI-58702] the figure was 6.31 nM.

Take `C[C@@H]1CN(Cc2ccccc2N2CCN(C(=O)[C@@H](Cc3ccc(Cl)cc3)NC(=O)[C@H]3Cc4ccccc4CN3)CC2)[C@@H](C)CN1` [NBI-56297]: the affinity, expressed as Ki, was 20 nM. This Ki lies about 3.2-fold higher than the previous one. With `CN(Cc1cccnc1)Cc1ccccc1N1CCN(C(=O)[C@@H](Cc2ccc(Cl)cc2)NC(=O)[C@H]2Cc3ccccc3CN2)CC1` the figure was 74.1 nM.
